Test results taken from patent US8846675B2, “N-linked heterocyclic receptor agonists for the treatment of diabetes and metabolic disorders” (Cymabay Therapeutics, Inc., priority 2007, dated 2014).

What was measured:
[1] = target: T1, IC-GPCR2 (Homo sapiens, UniProt Q8TDV5, S309L); assay: Stimulation of cAMP in CHO cell line stably expressing IC-GPCR2 (HTRF cAMP dynamic kit); assay type: cell-based; settings: 3 μM compound; IC-GPCR2 stably expressing CHO cells; not included in Table 1
T1 construct: expressed in transfected cells
T1 sequence (Q8TDV5 1-335 S309L): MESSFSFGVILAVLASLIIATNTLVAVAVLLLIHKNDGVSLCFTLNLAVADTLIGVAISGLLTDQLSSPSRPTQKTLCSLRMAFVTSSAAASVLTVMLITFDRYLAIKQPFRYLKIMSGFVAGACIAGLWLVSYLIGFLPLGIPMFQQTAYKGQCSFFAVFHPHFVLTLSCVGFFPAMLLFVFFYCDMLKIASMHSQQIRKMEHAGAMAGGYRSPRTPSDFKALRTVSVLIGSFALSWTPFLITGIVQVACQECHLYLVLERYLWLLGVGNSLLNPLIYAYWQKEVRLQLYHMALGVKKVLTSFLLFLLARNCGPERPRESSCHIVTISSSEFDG
Procedure, shortened: (§1)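 CHO cells stably expressing IC-GPCR2, with parental CHO as counter-screen, were exposed to compound (0.00003–10 μM) for 30 min in Ham's F12. Intracellular cAMP read by HTRF competitive immunoassay (665/620 nm ratio). Activity at 3 μM expressed as % of maximal signal from a reference agonist.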

[2] = target: T2, IC-GPCR2 (Homo sapiens, UniProt Q8TDV5); assay: as above; assay type: cell-based; settings: 3 μM compound; relative to maximal activity of 5-Ethyl-2-{4-[4-(4-tetrazol-1-yl-phenoxymethyl)-thiazol-2-yl]-piperidin-1-yl}-pyrimidine (=100%); IC-GPCR2 stably expressing CHO cells, 30 minutes
T2 construct: expressed in transfected cells
T2 sequence (Q8TDV5 1-335 S309L): T1 sequence (Q8TDV5 1-335 S309L)
Procedure, shortened: as §1

| SMILES | activity when tested at 3 μM (in words) [1] | % activity at 3 μM [2] |
| --- | --- | --- |
| Cc1nc(C)c(S(=O)(=O)N2CCC(n3ncc(COc4ccc(-n5cnnn5)nc4)n3)CC2)s1 [Example 39, 5-(4-(4-((6-(1H-Tetrazol-1-yl)pyridin-3-yloxy)methyl)-2H-1,2,3-triazol-2-yl)piperidin-1-ylsulfonyl)-2,4-dimethylthiazole] | did not exhibit activity | – |
| Cn1cnc(S(=O)(=O)N2CCC(n3ncc(COc4ccc(-n5cnnn5)nc4)n3)CC2)c1 [Example 42, 5-((2-(1-(1-Methyl-1H-imidazol-4-ylsulfonyl)piperidin-4-yl)-2H-1,2,3-triazol-4-yl)methoxy)-2-(1H-tetrazol-1-yl)pyridine] | did not exhibit activity | – |
| Cc1noc(C)c1S(=O)(=O)N1CCC(n2ncc(COc3ccc(-n4cnnn4)nc3)n2)CC1 [Example 43, 4-(4-(4-((6-(1H-Tetrazol-1-yl)pyridin-3-yloxy)methyl)-2H-1,2,3-triazol-2-yl)piperidin-1-ylsulfonyl)-3,5-dimethylisoxazole] | did not exhibit activity | – |
| C[C@H](NC(=O)OC(C)(C)C)C(=O)N1CCC(n2ncc(COc3ccc(-n4cnnn4)nc3)n2)CC1 [Example 53, (S)-tert-Butyl 1-(4-(4-((6-(1H-tetrazol-1-yl)pyridin-3-yloxy)methyl)-2H-1,2,3-triazol-2-yl)piperidin-1-yl)-1-oxopropan-2-ylcarbamate] | did not exhibit activity | – |
| COC(=O)c1cc(C)nc(N2CCC(n3ncc(COc4ccc(-n5cnnn5)nc4)n3)CC2)n1 [Example 79, Methyl 2-(4-(4-((6-(1H-tetrazol-1-yl)pyridin-3-yloxy)methyl)-2H-1,2,3-triazol-2-yl)piperidin-1-yl)-6-methylpyrimidine-4-carboxylate] | did not exhibit activity | – |
| Cn1nc(OCc2cnn(C3CCN(c4ncc(Cl)cn4)CC3)n2)cc1C(F)(F)F [Example 97, 5-Chloro-2-{4-[4-(1-methyl-5-trifluoromethyl-1H-pyrazol-3-yloxymethyl)-[1,2,3]-triazol-2-yl]-piperidin-1-yl}-pyrimidine] | did not exhibit activity | – |
| CCc1cnc(N2CCC(n3ccc(COc4ccc(-n5cnnn5)cc4F)n3)CC2)nc1 [Example 113, 5-Ethyl-2-(4-(3-((2-fluoro-4-(1H-tetrazol-1-yl)phenoxy)methyl)-1H-pyrazol-1-yl)piperidin-1-yl)pyrimidine] | – | 57.71% |
